Laboratory results reported in PubChem BioAssay (NCI).
“And” between values parts separate entries of the source, which are not always exact repeats. Equal values may be shown once.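 Each compound was tested at five concentrations against cells in 96-well plates for 48 hours. At the GI50, growth is halved. TGI: total growth inhibition.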

Experiments:
Test in all cases: NCI-60 cell line screen, 48 h
[1] = system: MDA-N
[2] = system: PC-3 prostate
[3] = system: SF-295 CNS
[4] = system: DU-145 prostate
[5] = system: A549 NSCLC
[6] = system: SF-539 CNS
[7] = system: IGROV1 ovarian
[8] = system: RPMI-8226 leukemia
[9] = system: HCT-15 colon
[10] = system: SK-OV-3 ovarian
[11] = system: MALME-3M melanoma

SMILES: Cn1c2ccccc2n2c3ccccc3c(=S)c(C#N)c12
- TGI [1]: > 100 µM
- TGI [2]: > 100 µM
- TGI [3]: > 100 µM
- TGI [4]: > 100 µM
- TGI [5]: > 100 µM
- TGI [6]: > 100 µM
- TGI [7]: > 100 µM
- TGI [8]: > 100 µM
- TGI [9]: > 100 µM
- TGI [10]: > 100 µM

SMILES: COc1ccc(NC(C)=O)c(C(=O)CCNC(C)=O)c1
- TGI [1]: > 100 µM
- TGI [2]: > 100 µM
- TGI [3]: > 100 µM
- TGI [4]: > 100 µM
- TGI [5]: > 100 µM
- TGI [6]: > 100 µM
- TGI [7]: > 100 µM
- TGI [8]: > 100 µM
- TGI [9]: > 100 µM
- TGI [10]: > 100 µM

SMILES: C(/C=N/NC1=NCCN1)=N\NC1=NCCN1
- TGI [1]: > 100 µM
- TGI [2]: > 100 µM
- TGI [3]: > 100 µM
- TGI [5]: > 100 µM
- TGI [6]: > 100 µM
- TGI [7]: > 100 µM
- TGI [8]: > 100 µM
- TGI [9]: > 100 µM
- TGI [10]: > 100 µM
- TGI [11]: > 100 µM

SMILES: O=C(NCCCCNCCCNC(=O)C(F)(F)F)C(F)(F)F
- TGI [2]: > 100 µM
- TGI [3]: > 100 µM
- TGI [4]: > 100 µM
- TGI [5]: > 100 µM
- TGI [6]: > 100 µM
- TGI [7]: > 100 µM
- TGI [8]: > 100 µM
- TGI [9]: > 100 µM
- TGI [10]: 65.5 µM

SMILES: CC(=O)/C=C/c1c[nH]c(=O)[nH]c1=O
- TGI [3]: 751 µM
- TGI [5]: 1090 µM
- TGI [6]: 601 µM
- TGI [7]: 861 µM
- TGI [8]: 679 µM
- TGI [9]: 523 µM
- TGI [10]: 703 µM
- TGI [11]: 444 µM

SMILES: O=C(c1ccc(Cl)cc1)N(C(=S)N1CCN(c2ccccc2)CC1)c1ccccc1
- TGI [3]: > 100 µM
- TGI [5]: > 100 µM
- TGI [6]: > 100 µM
- TGI [7]: > 100 µM
- TGI [8]: > 100 µM
- TGI [9]: > 100 µM
- TGI [10]: > 100 µM
- TGI [11]: > 100 µM

SMILES: CCCCN(CCCC)c1ccc(N=Nc2ccc(S(=O)(=O)O)cc2)cc1
- TGI [1]: > 100 µM
- TGI [2]: 97.1 µM
- TGI [3]: > 100 µM
- TGI [4]: > 100 µM
- TGI [5]: > 100 µM
- TGI [6]: 33.4 µM
- TGI [7]: 43.1 µM
- TGI [8]: 53.5 µM
- TGI [9]: 40.4 µM
- TGI [10]: > 100 µM

SMILES: COc1ncc(C#CC(=O)c2ccccc2OC)c(OC)n1
- TGI [1]: 3.41 µM
- TGI [2]: 4.3 µM
- TGI [3]: 39.7 µM
- TGI [4]: 12.3 µM
- TGI [5]: 19 µM
- TGI [7]: 3.98 µM
- TGI [8]: 9.65 µM
- TGI [9]: 2.08 µM
- TGI [10]: > 60.4 µM
- TGI [11]: 3.36 µM

SMILES: O=C(/C(Cl)=C/c1ccccc1)c1ccccc1
- TGI [1]: 4.52 µM
- TGI [2]: 11.6 µM
- TGI [3]: 37.6 µM
- TGI [4]: 29.8 µM
- TGI [5]: 34.1 µM
- TGI [6]: 13.1 µM
- TGI [8]: > 46.2 µM
- TGI [9]: 8.35 µM
- TGI [10]: 39.8 µM
- TGI [11]: 4.39 µM

SMILES: CC1CSc2nc3[nH]c(=S)[nH]c3c(=O)n2C1 (stereo not drawn)
- TGI [3]: > 100 µM
- TGI [4]: > 100 µM
- TGI [5]: > 100 µM
- TGI [6]: > 100 µM
- TGI [7]: > 100 µM
- TGI [8]: > 100 µM
- TGI [9]: > 100 µM
- TGI [10]: > 100 µM
- TGI [11]: > 100 µM

SMILES: C=CCC1(O)c2cccc(O)c2C(=O)c2cccc(O)c21 (stereo not drawn)
- TGI [1]: 31.1 µM
- TGI [2]: 47.3 µM
- TGI [3]: 38.3 µM
- TGI [4]: 54.5 µM
- TGI [5]: 88.1 µM
- TGI [6]: > 100 µM
- TGI [7]: > 100 µM
- TGI [8]: 76.1 µM
- TGI [9]: 51.8 µM

SMILES: CC1C=C(NCC2(CO)CCC2)NC(N)=N1 (stereo not drawn)
- TGI [1]: > 100 µM
- TGI [2]: > 100 µM
- TGI [3]: > 100 µM
- TGI [4]: > 100 µM
- TGI [5]: > 100 µM
- TGI [7]: > 100 µM
- TGI [8]: > 100 µM
- TGI [9]: > 100 µM
- TGI [10]: > 100 µM
- TGI [11]: > 100 µM

SMILES: C[C@@H]1CCN(C(=O)CC#N)C[C@@H]1N(C)c1ncnc2[nH]ccc12
- GI50 [3]: > 100 µM
- TGI [3]: > 100 µM
- GI50 [4]: > 100 µM
- TGI [4]: > 100 µM
- GI50 [5]: > 100 µM
- TGI [5]: > 100 µM
- GI50 [6]: 39.3 µM
- TGI [6]: > 100 µM
- GI50 [7]: 65.8 µM
- TGI [7]: > 100 µM
- GI50 [9]: > 100 µM
- TGI [9]: > 100 µM
- GI50 [10]: 90.9 µM
- TGI [10]: > 100 µM
- GI50 [11]: 82.5 µM
- TGI [11]: > 100 µM

SMILES: O/N=C1\CC2(N3CCOCC3)CCC1(Cc1ccccc1)CC2
- TGI [1]: > 100 µM
- TGI [2]: > 100 µM
- TGI [3]: 61.2 µM
- TGI [4]: > 100 µM
- TGI [5]: > 100 µM
- TGI [6]: 58.3 µM
- TGI [7]: > 100 µM
- TGI [9]: > 100 µM
- TGI [10]: 83 µM
- TGI [11]: > 100 µM

SMILES: C/C(=N/NC(=S)N(Cc1ccccn1)Cc1ccccn1)c1cnccn1
- TGI [1]: 31.2 µM
- TGI [2]: 26 µM
- TGI [3]: 9.37 µM
- TGI [4]: > 33.3 µM
- TGI [5]: 14.5 µM
- TGI [7]: 2.78 µM
- TGI [8]: > 37.4 µM
- TGI [9]: 87.1 µM
- TGI [10]: 4.27 µM
- TGI [11]: 7.53 µM

SMILES: CC1(C)SC2C(NC(=O)Cc3ccccc3)C(=O)N2C1C(=O)O (stereo not drawn)
- TGI [1]: > 100 µM
- TGI [2]: > 100 µM
- TGI [3]: > 100 µM
- TGI [4]: > 100 µM
- TGI [5]: > 100 µM
- TGI [6]: > 100 µM
- TGI [7]: > 100 µM
- TGI [9]: > 100 µM
- TGI [10]: > 100 µM
- TGI [11]: > 100 µM

SMILES: CCCCCC(/C=N/NC(N)=S)C(O)(C(F)(F)F)C(F)(F)F (stereo not drawn)
- TGI [1]: > 10 µM
- TGI [2]: > 10 µM
- TGI [3]: > 10 µM
- TGI [4]: > 10 µM
- TGI [5]: > 10 µM
- TGI [6]: > 10 µM
- TGI [7]: > 10 µM
- TGI [9]: > 10 µM
- TGI [10]: > 10 µM
- TGI [11]: > 10 µM

SMILES: CSc1nc(-c2cc3c(c(SC)n2)CCC3)cc2c1CCC2
- TGI [1]: > 100 µM
- TGI [2]: > 100 µM
- TGI [3]: > 100 µM
- TGI [4]: > 100 µM
- TGI [5]: > 100 µM
- TGI [6]: > 100 µM
- TGI [8]: > 100 µM
- TGI [9]: > 100 µM
- TGI [10]: > 100 µM

SMILES: COc1ccc(S(=O)Cc2cc(OC)ccc2OC)cc1 (stereo not drawn)
- TGI [1]: > 100 µM
- TGI [2]: > 100 µM
- TGI [3]: > 100 µM
- TGI [4]: > 100 µM
- TGI [5]: > 100 µM
- TGI [6]: > 100 µM
- TGI [7]: > 100 µM
- TGI [9]: > 100 µM
- TGI [10]: > 100 µM
- TGI [11]: > 100 µM

SMILES: Cn1c2c(c3ccccc31)CC(=O)N1CCCCC1C21OCCO1 (stereo not drawn)
- TGI [1]: > 100 µM
- TGI [2]: > 100 µM
- TGI [3]: > 100 µM
- TGI [4]: > 100 µM
- TGI [5]: > 100 µM
- TGI [7]: > 100 µM
- TGI [8]: > 100 µM
- TGI [9]: > 100 µM
- TGI [10]: > 100 µM
- TGI [11]: > 100 µM

SMILES: O=[N+]([O-])c1cccc2nc3ccccc3c(NCCNCCO)c12
- TGI [2]: 0.017 µM
- TGI [3]: 0.0367 µM and 0.133 µM
- TGI [5]: 0.145 µM and 0.144 µM
- GI50 [6]: 0.0116 µM
- TGI [6]: 0.136 µM and 0.0384 µM
- TGI [7]: 0.0233 µM and 0.0569 µM
- TGI [8]: 0.0602 µM and 0.0646 µM
- TGI [9]: > 100 µM
- TGI [10]: 0.293 µM and 0.377 µM
- TGI [11]: 0.0216 µM and 0.0317 µM

SMILES: COC(=O)c1cc(C)ccc1CC(Cc1ccccc1C)C(=O)OC (stereo not drawn)
- TGI [1]: > 100 µM
- TGI [2]: > 100 µM
- TGI [3]: > 100 µM
- TGI [4]: > 100 µM
- TGI [5]: > 100 µM
- TGI [6]: > 100 µM
- TGI [7]: > 100 µM
- TGI [9]: > 100 µM
- TGI [10]: > 100 µM
- TGI [11]: > 100 µM
